Earlier results in US8278040B2, “Optically responsive and mechanically tunable colloid-in-liquid crystal gels” (priority 2008, dated 2012).

Test system: live cells

For `CCCCCc1ccc(-c2ccc(C#N)cc2)cc1` [5CB, 4-cyano-4′-pentylbiphenyl], the “toxicity to living cells (stated)” value (general statement, criteria of Luk et al.) is listed as “cytotoxic” and the “cell death on direct contact with live cells” value (placed into direct contact with live cells) is listed as “cause cell death within a short time period”.
